The values that follow come from patent US4418205A, “16-Amino-18,19,20-trinor-prostaglandin derivatives, and acid addition salts” (priority 1980, dated 1983).

Data set [1] has as its system mice being in the 16th to 17th day of their pregnancy. The data set is described as follows: Abortion induction in mice in the 3rd trimestre of pregnancy, subcutaneous. Format: in vivo. The settings on record: pregnant mice; for ED50: Mus musculus, sc, 16th to 17th day, subcutaneous, abortions within 48 hours, obtained by interpolation, read-out: Approx. ED50 (dose inducing abortion in 50 percent of the animals). As for the experimental part: According to one of the test methods /M. J. K. Harper and R. C. Skarnes: Advances in Biosciences 9, 789 /1973// the test material was administered subcutaneously to mice being in the 16th to 17th day of their pregnancy /3rd trimestre/, then the number of abortions ensuing with 48 hours was registered, as well as the live and dead fetuses following the removal of the uterus, and the scars on the placenta.
(§1) Applying the above methods the dose-response relationship was established at PGF2α, and its methyl ester, as well as the compounds of general formula I of the present invention. The number of animals was 5 per dose.

Data set [2] deals with hamsters being in the 4th, 5th, and 6th day of pregnancy. Briefly: Interruption of early pregnancy in hamsters, subcutaneous. Format: in vivo, hamster. The settings on record: for ED50: Mesocricetus auratus, sc, hamster, 1st trimestre, treated subcutaneously day 4, 5, 6, autopsy day 8, read-out: Approx. ED50. As for the experimental part:
(§2) Here hamsters being in the 4th, 5th, and 6th day of pregnancy were treated subcutaneously, and following autopsy on the 8th day, the number of intrauterine embryonal implantations, as well as the condition of the ovaria were investigated /N. S. Crossley: Prostaglandins 10, 5 /1975//. Similarly rats were treated on the 4th, 5th, 6th and 7th day of pregnancy, and killed on the 9th day, and the interruption of pregnancy registered at the autopsy /W. Skuballa et al.: J. Med. Chem. […], 443 /1978//.
as §1
(§3) A similar increase in potency could be observed at the treatment of animals being in the 1st trimestre of their pregnancy.
The 50 fold increase in potency compared to that of PGF2α is especially worth mentioning in the case of hamsters, as this test is suitable for the sensitive detection of the abortive effect of a given compound if it has lutheolytic activity.

Data set [3] relates to rats treated on the 4th, 5th, 6th and 7th day of pregnancy. The data set is described as follows: Interruption of early pregnancy in rats. Format: in vivo. As to conditions: rat, 1st trimestre, treated day 4, 5, 6, 7, killed day 9; read-out: Approx. ED50. As for the experimental part:
as §2, §1, §3

Data set [4] concerns pregnant mice. As to conditions: mouse, in vivo.

Where two headings read alike, the source gives them in different places.

Consider `COC(=O)CCC/C=C\C[C@@H]1[C@@H](/C=C/C(O)[C@@H](N)Cc2ccccc2)[C@H](O)C[C@@H]1O` (single isomer, unassigned) [9α,11α,15/.xi./-Trihydroxy-16/S/-amino-17-phenyl-5-cis,13-trans-18,19,20-trinor-prostadienoic acid methyl ester], for which the ED50 (as a rule, the dose that gives a 50% effect, or the effect in half of the subjects) was roughly 1.2 mg/kg in data set [1], roughly 0.0005 mg/kg in data set [2] and roughly 0.1 mg/kg in data set [3]. In addition, the “potency compared to PGF2α” value in data set [1] (from ED50 values) is on record as 13 fold. Further, in data set [1] (from ED50 values), the “potency compared to PGF2α methyl ester” value amounted to 8 fold. For the same compound, the “increase in potency compared to that of PGF2α” value in data set [2] (hamsters) is 50 fold. Also, the induction of diarrhoea result in data set [4] (3 mg/kg) was “failed to induce diarrhoea”.
For `CCCCC[C@H](O)/C=C/[C@@H]1[C@@H](C/C=C\CCCC(=O)OC)[C@@H](O)C[C@H]1O` [PGF2α -methyl ester, reference compound], the ED50 in data set [1] was roughly 10 mg/kg. Moreover, in data set [4] (3 mg/kg), the incidence of diarrhoea result is given as “over 50%”.
`CCCCC[C@H](O)/C=C/[C@@H]1[C@@H](C/C=C\CCCC(=O)O)[C@@H](O)C[C@H]1O` [PGF2α, reference compound]: the ED50 in data set [1] is roughly 16 mg/kg; in data set [2], roughly 0.025 mg/kg; in data set [3], roughly 1 mg/kg. Moreover, the incidence of diarrhoea entry in data set [4] (10 mg/kg) is “over 50%”.
